The results in this text go back to patent US20150231190A1, “COMPOSITIONS COMPRISING SIRAITIA GROSVENORI EXTRACTS AND METHODS FOR THE TREATMENT OF INFECTION” (Cascade Estates Limited, priority 2007, published 2015).

In one data set the test system is HIV-1 strain IIIB. Nature of the data set: HIV-1 p24 antigen capture ELISA antiviral assay in H9 cells. The format is cell-based. As to conditions: for % Positive Control (HIV-1 p24): 7 days. An excerpt: (§1) H9 cells were used as host cells for the virus. H9 is a human T cell clone selected for high yield permissive growth of HIV-1, cloned from Hut 78, a human T cell lymphoma cell line with an inducer/helper phenotype derived from the peripheral blood of a patient with Sezary Syndrome.
The virus used was HIV-1, Strain IIIB, Catalog No 10-124-000, Lot No. 6M0008-DP.
A titration was run on the virus under the assay conditions without the experimental compounds to determine the viral inoculum for the antiviral assay, that is the lowest multiplicity of infection (MOI) that will infect all positive control cultures. The inoculum was approximately seven times the TCID50/mL of the stock virus.
1 mL cultures were plated with approximately 2.5×10^5 cells per culture. Four replicates were run for each assay condition.
The virus was absorbed onto the host cells in the presence of a reduced volume of culture medium for 2 hours. The inoculum was then washed off the cells with phosphate buffered saline. […] The growth medium used was RPMI 1640 with 10% fetal bovine serum and 50 μg/mL gentamicin.
The assay was run for 7 days and re-fed media with appropriate compound concentrations at 4 days.
The amount of virus proliferation was measured using an HIV-1 p24 antigen capture ELISA. At 7 days, supernatants were harvested and frozen. Supernatants were thawed and diluted as necessary, and the HIV-1 p24 ELISA assay was run. Excess supernatant was refrozen and held for 3 months. The HIV-1 p24 […] of replicate cultures were averaged and presented as a percentage of the positive control.
An inhibition index of zero indicated no efficacy. The closer to 1 the inhibition index was, the greater the efficacy.
For orientation: ELISA stands for enzyme-linked immunosorbent assay.

The next data set concerns H9 cells. The experiment in a line: Cytotoxicity control by microscopic inspection of cells. Conditions: for Cytotoxicity (Appearance of cells): no virus.
Description: as §1
Cytotoxicity was judged from the microscopic inspection of the cells.

Data set [1] is described as follows: Water solubility (stated). The format is physicochemical.
For data set [2], the system named is Bovine Viral Diarrhoea Virus (BVDV), strain NADL. Nature of the data set: Antiviral fluorometric cytoproliferation assay against BVDV in BT turbinate cells. The format is cell-based. Conditions: fluvastatin alone 0.3125 μg/mL.
Description: The Luo Han Guo extract was tested independently at a wide range of concentrations. The extract was tested in two assays, one at 100, 50, 25, 12.5 and 6.25 μg/mL and the other at 3600, 1200, 400, 133.3 and 44.4 μg/mL.
Bos taurus (BT) turbinate cells were used as host cells for the virus. After the cells were plated and allowed to grow overnight, The extract was added and then the virus was inoculated into the cultures. The cultures were allowed to grow for 7 days and then a fluorometric cytoproliferation assay was run. The data from all replicate cultures was averaged and compared to the growth of the negative controls (no virus or extract). The extract was present during absorption and in the media for the duration of the assays. A titration was run on the virus under the assay conditions but without the extract to determine the optimal viral inoculum for the antiviral assay. A dilution of 10^−4 of the stock virus was determined to be the correct inoculum for the antiviral assays. The growth medium used was Dulbecco's Minimum Eagle's Medium and 10% filtered horse serum. […]
The inhibition index was calculated as one minus the ratio of the average fluorescent units of the positive control to the average fluorescent units of infected cultures with a particular concentration of extract (1−(average positive control+average with extract)). […]

As to `C[C@H](CC[C@@H](O[C@@H]1O[C@H](CO[C@@H]2O[C@H](CO)[C@@H](O)[C@H](O)[C@H]2O)[C@@H](O)[C@H](O)[C@H]1O[C@@H]1O[C@H](CO)[C@@H](O)[C@H](O)[C@H]1O)C(C)(C)O)[C@H]1CC[C@@]2(C)[C@@H]3CC=C4[C@@H](CC[C@H](O[C@@H]5O[C@H](CO[C@@H]6O[C@H](CO)[C@@H](O)[C@H](O)[C@H]6O)[C@@H](O)[C@H](O)[C@H]5O)C4(C)C)[C@]3(C)[C@H](O)C[C@]12C` [Mogroside V, mogroside V], in the data set with HIV-1 strain IIIB, the “Concentration most effective against HIV-1” value was 6 µg/mL. The Efficacy result was “Partial (partially efficacious if cultures had an inhibition index between 0.20 and 0.89)” in the data set with HIV-1 strain IIIB (Mogroside V 2 μg/mL); “Partial (partially efficacious if cultures had an inhibition index between 0.20 and 0.89)” with HIV-1 strain IIIB (Mogroside V 6 μg/mL); “Partial (partially efficacious if cultures had an inhibition index between 0.20 and 0.89)” in the data set with HIV-1 strain IIIB (Mogroside V 12 μg/mL); “Partial (partially efficacious if cultures had an inhibition index between 0.20 and 0.89)” in the data set on HIV-1 strain IIIB (Mogroside V 36 μg/mL); “None (as having no efficacy if cultures had an inhibition index of less than 0.20)” in the data set with HIV-1 strain IIIB (Mogroside V 100 μg/mL). Besides, the “% Positive Control (HIV-1 p24)” value came out at 48% in the data set with HIV-1 strain IIIB (Mogroside V 2 μg/mL); 21% in the data set with HIV-1 strain IIIB (Mogroside V 6 μg/mL); 34% in the data set on HIV-1 strain IIIB (Mogroside V 12 μg/mL); 59% in the data set on HIV-1 strain IIIB (Mogroside V 36 μg/mL); 88% in the data set on HIV-1 strain IIIB (Mogroside V 100 μg/mL). For the same compound, the “Effectiveness at suppressing HIV-1 replication” value in the data set with HIV-1 strain IIIB (Mogroside V 6 μg/mL) is around 80%. For the same compound, the “Cytotoxicity (Appearance of cells)” value in the data set on H9 cells (Mogroside V 2 μg/mL), in the data set with H9 cells (Mogroside V 6 μg/mL), in the data set on H9 cells (Mogroside V 12 μg/mL), with H9 cells (Mogroside V 36 μg/mL) and with H9 cells (Mogroside V 100 μg/mL) was “Normal” throughout. The “Cytotoxicity, as determined by microscopic inspection” value with H9 cells (entire range of concentrations used (2 to 100 μg/mL)) is on record as “no cytotoxicity”.
For `CC(C)n1c(/C=C/[C@H](O)C[C@H](O)CC(=O)O)c(-c2ccc(F)cc2)c2ccccc21` (racemic) [fluvastatin, 7-[3-(4-fluorophenyl)-1-(1-methylethyl)-1H-indol-2-yl]-3,5-dihydroxy-hept-6-enoic acid], in data set [1], the Water solubility entry is listed as “water soluble”. For the same compound, the “Antiviral activity against BVDV” value in data set [2] was “no antiviral activity”.
